We go through two compounds from US6306392A, “Composition comprising a carnitine and glutathione, useful to increase the absorption of glutathione and synergize its effects” (Sigma-Tau Healthscience S.p.A., priority 1999, dated 2001).

The structures appear in SMILES notation.

Series [1] deals with glycerol-induced kidney failure. Description: Activity against glycerol-induced nephropathy. In kind it is in vivo, Male Sprague-Dawley rats. Particulars: for Protective effect against glycerol-induced kidney lesions (in words): rat; for Urea: rat plasma 24 hours after glycerol injection (10 cc/kg of 50% w/v), treated daily three days before. How it is done:
The method used in this test was that described by Young (Young J. H. K., Meth. Find. Exp. Clin. Pharmacol., 13:23, 1991). According to this test, a glycerol injection induces kidney failure and nephropathy in the rat. This method was used to assess the protective effects of the combination according to the invention on the kidney. Male Sprague-Dawley rats were used, which, after being deprived of drinking water for 24 hours, were injected with 10 cc/kg of a 50% w/v solution of glycerol and water. After the injection, the animals thus treated were allowed to drink. After 24 hours, blood samples were taken from the animals and, after centrifuging, the plasma creatinine concentration was assayed (according to the method described by Taussky H. H., Clin. Chem. Acta, 1:210, 1956) and urea by means of reaction with diacetylmonoxime (Henry R. Y., Cannon D. C. Eds., Clinical Chemistry, 2 Ed. Harper & Rowe, London 1974). Propionyl L-carnitine (100 mg/kg), glutathione (50 mg/kg) or yeast containing glutathione (500 mg/kg), amino acids (25 mg/kg each), yeast (500 mg/kg) and a combination of these at the same doses were administered daily on the three days preceding the test.

For series [2], the system named is glutathione-depleted rats. The experiment in a line: Glutathione uptake and concentration in blood of glutathione-depleted (DEM) animals. In kind it is in vivo, Sprague-Dawley male rats. The following applies: rats depleted with diethylmaleate (DEM) 1 cc/kg i.p.; oral treatment half an hour after; measured 4 h after. How it is done: To this end, the glutathione content in the blood of a group of Sprague-Dawley male rats was reduced by means of the administration of diethylmaleate (DEM)a depletor of glutathione, according to the technique described by Plummer (Plummer J., Chemical depletion of glutathione "in vivo", Methods in Enzymology, 77:50, 1981). DEM was administered intraperitoneally to fasting rats at the dose of 1 cc/kg. Half an hour after injection of diethylmaleate, glutathione alone (50 mg/kg), or yeast containing 10% glutathione (500 mg/kg), or 50 mg/kg of glutathione together with 500 mg of yeast not containing glutathione were administered orally. Another group of rats received glutathione amino acid precursors (glutamic acid 50 mg/kg, glycine 50 mg/kg, cysteine 50 mg/kg, magnesium 10 mg/kg) or the complete combination according to the invention at the same doses as described here above.
After four hours blood samples were taken from the animals thus treated and the plasma glutathione concentration was measured.

The subject of series [3] is acetaminophen-induced mortality. Description: Acetaminophen (paracetamol) induced toxicity tests. In kind it is in vivo. Particulars: mice; for Protection against the mortality induced by acetaminophen (in words): acetaminophen 600 mg/kg. The method, then:
Various groups of male mice received oral administrations of 600 mg/kg acetaminophen, which is a dose sufficient to cause death within 24 hours in 50% of the animals thus treated.
At the same time as the acetaminophen administration, one group of animals (group G) were administered glutathione (G) and a second (group YG) were administered yeast containing 10% glutathione (YG); a third group (group PC) were administered propionyl L-carnitine (PC); a fourth group (group AA) were administered a combination of glutamic acid, cysteine, glycine and magnesium (AA); a fifth group (group CC) were administered a first combination according to the invention, called the "complete combination" (CC), consisting of PC+G+AA, while a sixth group (group CYC) were administered a second combination according to the invention, called the "complete yeast combination" (CYC), consisting of PC+YG+AA.
These synergistic effects appear even more marked when the mice are administered a 900 mg/kg acetaminophen dose, which causes the deaths of 100% of the animals. In this case, only administration of the complete yeast combination, CYC, protects more than 50% of the animals treated against death (see Table 2).
The protection against acetaminophen at the dose of 900 mg/kg afforded by the new composition was even more marked when the animals were treated for 7 consecutive days prior to acetaminophen administration with the various components of the combination (see Table 3).

Series [4] concerns CCl4-intoxicated liver cell cultures. Description: Carbon tetrachloride (CCl4) intoxication tests on isolated rat liver cells. In kind it is cell-based. Particulars: for Toxic effects of carbon tetrachloride (in words): CCl4 10 mmol.L^-1. The source says:
The cells used in these tests were isolated rat liver cells after perfusion with collagenase according to the method described by Seglen (Seglen F. O., Method Cell. Biol. Chem. 264:4747, 1989). Approximately 4-6×10^8 viable liver cells were collected, calculated by exclusion of non-viable cells by means of trypan blue.
The cells thus isolated were suspended in 25 cm^2 plastic receptacles in the presence of antibiotics and 10% inactivated fetal calf serum. To the cell suspension thus obtained was added CCl4 (10 mmol.L^-1), glutathione (GSH 20 mg.L^-1), propionyl L-carnitine (100 mg.L^-1) or glutathione combined with propionyl L-carnitine. After a 4-h incubation the percentage of dead cells was estimated by release of lactate dehydrogenase, as described by Casini et al. (Casini et al., J. Biol. Chem., 257:6721, 1982).
The cytological examination of the liver cells was done under both the light and electron microscope after fixation in 3% formalin and paraffin for light microscopy and 3% glutaraldehyde and 1% osmium tetroxide for electron microscopy.

Series [5] has as its system hypertriglyceridaemia induced in the rat. The experiment in a line: Protection against experimental hypertriglyceridaemia (fructose) in the rat. In kind it is in vivo. Particulars: fructose 3 g/kg oral; for Hypertriglyceridaemia (blood triglycerides): five hours after, oral treatment three days before and three hours after. From the text: The method used for this test was that described by Carlson (Carlson L. A. V., J. Atheroscl. Res., 8:667, 1968) and modified as described in Atherosclerosis, 16:349, 1972. According to this test oral administration of 3 g/kg of fructose in the rat induces a substantial increase in both liver and serum triglycerides five hours after administration.
The aim of this test was to assess whether the administration of the components of the composition according to the invention, when used alone or in combination, were capable of leading to a reduction in this triglyceride abnormality which is regarded as underlying severe liver dysfunctions as well as atherosclerosis.
To this end, various groups of rats were treated with glutathione (G=50 mg/kg), with propionyl L-carnitine (PC=50 mg/kg), or with yeast containing 10% glutathione (YG=500 mg/kg), or with an amino acid mixture (AA=glutamic acid 50 mg/kg, cysteine 25 mg/kg, glycine 100 mg/kg+magnesium 5 mg/kg), or with a combination of these various components (at the same doses) without yeast (CC) or with yeast (CYC). The treatment was given orally on the three days preceding fructose administration and for three hours after its administration. Five hours after fructose administration all animals were sacrificed and blood samples were used to assay triglycerides according to the method described by Donabedian (Donabedian R. K., Clin. Chem., 20:632, 1974).

In series [6] the test system is glutathione (GSH) concentration. Description: Effects on glutathione (GSH) concentration in young and elderly rats. Format: in vivo. The method, then:
Since the metabolic and enzymatic activity of glutathione is known to be reduced in elderly rats and this reduction is regarded as one of the causes of ageing, the effect of the administration of the new composition or its individual components on glutathione concentrations in the plasma and liver of young and elderly rats was evaluated.
For this test two different groups of rats were used: young rats (2-3 months) and elderly rats (8-10 months). The glutathione (GSH) concentration was calculated in both groups according to the technique described by Moron (Moron M. S., Biochem. Biophys. Acta, 582:67, 1979) both before the start of the test and after 15 days' daily administration of propionyl L-carnitine (100 mg/kg), glutathione (50 mg/kg), propionyl L-carnitine with glutathione or with yeast containing 10% glutathione (500 mg/kg), amino acids (500 mg/kg) or the combination according to the invention.

The subject of series [7] is increase in liver triglycerides induced by CCl4. Description: Carbon tetrachloride-induced liver intoxication tests (liver triglycerides). Format: in vivo. Particulars: rats, CCl4 1 ml.kg^-1 i.p. (20% in olive oil), treated three consecutive days before. How it is done: Another indicator of CCl4 toxicity in the liver is provided by the increased hepatic concentration of triglycerides.
The CCl4 intoxication was induced by giving fasting rats an intraperitoneal injection of 1 ml.kg^-1 of a suspension of 20% CCl4 in olive oil. Prior to CCl4 intoxication the rats were treated for three consecutive days with glutathione (G=50 mg/kg), or with propionyl L-carnitine (PC=100 mg/kg), or with yeast containing 10% glutathione (YG=500 mg/kg), or with a combination of amino acids (AA=glutamic acid 50 mg, cysteine 25 mg, glycine 50 mg, magnesium 5 mg). or with the complete combination CC (CC=PC+G+AA), or with the complete yeast combination CYC (CYC=PC+YG+AA). After administration of CCl4, the livers were excised from the decapitated animals and were used to measure the triglyceride concentration according to the method described by Donabedian (Donabedian R. K., Clin. Chem., 20:632, 1974).

[8] abbreviates: acetaminophen 900 mg/kg, dead/total, Table 2.
Where [9] appears, read: acetaminophen 900 mg/kg, dead/total, table at the place of Table 3, printed as a repeat of TABLE 2.
The mark [10] stands for this setting: oral acetaminophen 600 mg/kg, substance given at the same time, mortality 24 hours after treatment (dead/total), Table 1.
Where [11] appears, read: CCl4-intoxicated liver cell cultures, table at the place of Table 5, printed as a repeat of TABLE 4.
[12] abbreviates: isolated rat liver cells, CCl4 10 mmol.L^-1, 4-h incubation, lactate dehydrogenase release, GSH 20 mg.L^-1, propionyl L-carnitine 100 mg.L^-1, Table 4.
Where [13] appears, read: elderly rats (8-10 months), liver, after 15 days' daily administration, Table 9.
The mark [14] stands for this setting: elderly rats (8-10 months), liver, before the start of the test, Table 9.
[15] abbreviates: elderly rats, 15 days, table at the place of Table 10, printed as a repeat of TABLE 9.
The mark [16] stands for this setting: elderly rats, time 0, table at the place of Table 10, printed as a repeat of TABLE 9.
The mark [17] stands for this setting: young rats (2-3 months), liver, after 15 days' daily administration, Table 9.
The mark [18] stands for this setting: young rats (2-3 months), liver, before the start of the test, Table 9.
[19] abbreviates: young rats, 15 days, table at the place of Table 10, printed as a repeat of TABLE 9.
The mark [20] stands for this setting: young rats, time 0, table at the place of Table 10, printed as a repeat of TABLE 9.

Regarding `CCC(=O)O[C@H](CC(=O)[O-])C[N+](C)(C)C` [PC, Propionyl L-carnitine], in series [1], the “Protective effect against glycerol-induced kidney lesions (in words)” value was “fairly good protective effect”. In addition, the Urea in series [1] is 88.5 ± 11.5 mg/100 ml. For the same compound, the “Glutathione (GSH) concentration in plasma” value in series [2] is 0.70 ± 0.54 mg/dL. Also, the “Protection against the mortality induced by acetaminophen (in words)” value in series [3] was “no such protection”. The Mortality in series [3] (setting [8]) was 10/10; in series [3] (setting [9]) it was 10/10; in series [3] (setting [10]) it was 6/10. Further, the “% dead cells” value in series [4] (setting [11]) and in series [4] (setting [12]) was 70 ± 7% throughout. Also, the “Toxic effects of carbon tetrachloride (in words)” value in series [4] (isolated rat liver cells) is “capable of reducing the toxic effects of carbon tetrachloride”. Besides, in series [5], the “Efficacy on serum triglyceride levels induced by fructose (in words)” value is listed as “small efficacy”. The “Hypertriglyceridaemia (blood triglycerides)” value in series [5] was determined as 185 ± 7.1 mg/100 ml. In addition, the “Glutathione concentration in liver, elderly rats, time 15 days” value in series [6] (setting [13]) and in series [6] (setting [15]) was 9.3 ± 0.46 GSH ng/mg protein in each case. In addition, the “Glutathione concentration in liver, elderly rats, time 0” value in series [6] (setting [14]) and in series [6] (setting [16]) was 7.9 ± 0.51 GSH ng/mg protein throughout. In addition, the “Glutathione concentration in liver, young rats, time 15 days” value in series [6] (setting [17]) and in series [6] (setting [19]) was 12.90 ± 0.71 GSH ng/mg protein in each case. Besides, the “Glutathione concentration in liver, young rats, time 0” value in series [6] (setting [18]) and in series [6] (setting [20]) was 11.25 ± 0.41 GSH ng/mg protein throughout. Also, the “Triglycerides (liver)” value in series [7] was determined as 20.2 ± 1.9 mg/g.

On to `N[C@@H](CCC(=O)N[C@@H](CS)C(=O)NCC(=O)O)C(=O)O` [G, N-(N-L-L-γ-glutamyl-cysteinyl) glycine], for which, in series [1], the “Protective effect against glycerol-induced kidney lesions (in words)” value is reported as “fairly good protective effect”. The Urea in series [1] stood at 79.9 ± 9.9 mg/100 ml. The “Glutathione (GSH) concentration in plasma” value in series [2] was found to be 0.95 ± 0.88 mg/dL. Further, the “Protection against the mortality induced by acetaminophen (in words)” value in series [3] is reported as “partial protection”. In addition, the values for the Mortality in series [3] (setting [8]), in series [3] (setting [9]) and in series [3] (setting [10]) were 7/10, 7/10 and 4/10, respectively. In addition, the “% dead cells” value in series [4] (setting [11]) and in series [4] (setting [12]) was 55 ± 5% each time. In series [4] (isolated rat liver cells), the “Toxic effects of carbon tetrachloride (in words)” value was “capable of reducing the toxic effects of carbon tetrachloride”. Further, the “Efficacy on serum triglyceride levels induced by fructose (in words)” value in series [5] is given as “small efficacy”. The “Hypertriglyceridaemia (blood triglycerides)” value in series [5] was found to be 180 ± 5.9 mg/100 ml. Moreover, the “Glutathione concentration in liver, elderly rats, time 15 days” value in series [6] (setting [13]) and in series [6] (setting [15]) was 9.90 ± 0.76 GSH ng/mg protein each time. Besides, the “Glutathione concentration in liver, elderly rats, time 0” value in series [6] (setting [14]) and in series [6] (setting [16]) was 8.82 ± 0.69 GSH ng/mg protein in each case. In addition, the “Glutathione concentration in liver, young rats, time 15 days” value in series [6] (setting [17]) and in series [6] (setting [19]) was 12.85 ± 0.66 GSH ng/mg protein in each case. Further, the “Glutathione concentration in liver, young rats, time 0” value in series [6] (setting [18]) and in series [6] (setting [20]) was 12.1 ± 0.36 GSH ng/mg protein throughout. The “Triglycerides (liver)” value in series [7] worked out at 18.7 ± 2.1 mg/g.
